Patent US20100022491A1, “4-HYDROXY-2-OXO-2,3-DIHYDRO-1,3-BENZOTHIAZOL-7YL COMPOUNDS FOR MODULATION OF B2-ADRENORECEPTOR ACTIVITY” (ASTRAZENECA AB, priority 2006, published 2010)
Where a name gives a salt, the structure may show the parent alone.

Target: T1, Adrenergic β2 (Homo sapiens, UniProt P07550)
T1 construct: Adherent H292 cells were removed from tissue culture flasks; endogenous in cells; host or cells: H292 cells
Assay: Adrenergic β2 mediated cAMP production in H292 cells
Format: cell-based
Settings: for EC50 / β2 pEC50: H292 cells, cAMP by AlphaScreen, 60 minutes at room temperature, rolipram 300 μM; for EC50: read-out: β2 pEC50 (converted); for β2 Int Act: Intrinsic Activity as a fraction relative to the maximum activity determined for formoterol
Outline: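 H292 cells pretreated 10 min with rolipram (300 μM final), then exposed to agonist 60 min at room temperature in HEPES-buffered HBSS, 1.6% DMSO final. Lysate cAMP quantified by AlphaScreen against a cAMP standard curve; four-parameter fit gives pEC50 and intrinsic activity relative to formoterol maximum.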

T1 sequence (P07550 whole entry): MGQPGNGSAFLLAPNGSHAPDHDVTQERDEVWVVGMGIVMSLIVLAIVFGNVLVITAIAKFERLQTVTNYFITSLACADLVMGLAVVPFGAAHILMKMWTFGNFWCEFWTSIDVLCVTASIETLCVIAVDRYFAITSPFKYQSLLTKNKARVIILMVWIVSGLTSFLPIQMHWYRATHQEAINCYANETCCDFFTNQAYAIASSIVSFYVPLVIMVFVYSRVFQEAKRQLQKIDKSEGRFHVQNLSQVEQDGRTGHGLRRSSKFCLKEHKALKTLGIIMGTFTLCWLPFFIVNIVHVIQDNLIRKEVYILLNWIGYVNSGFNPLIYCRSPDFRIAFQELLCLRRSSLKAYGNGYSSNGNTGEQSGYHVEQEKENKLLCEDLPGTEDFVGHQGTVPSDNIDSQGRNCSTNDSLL

EC50 | β2 Int Act | SMILES | β2 pEC50 | β2 Int Act (dihydrobromide salt)
6.31 nM | 0.68 | O=C(CCNCCc1ccc2c(c1)OCO2)N(CCNCCc1ccc(O)c2[nH]c(=O)sc12)C1CCCCC1 [Example 76, N^3-[2-(1,3-Benzodioxol-5-yl)ethyl]-N^1-cyclohexyl-N^1-(2-{[2-(4-hydroxy-2-oxo-2,3-dihydro-1,3-benzothiazol-7-yl)ethyl]amino}ethyl)-β-alaninamide bis-trifluoroacetic acid salt] |  | 
2.51 nM | 0.84 | O=C(CCNCCc1cc(F)ccc1F)N(CCNCCc1ccc(O)c2[nH]c(=O)sc12)C1CCCCC1 [Example 79, N^1-Cyclohexyl-N^3-[2-(2,5-difluorophenyl)ethyl]-N^1-(2-{[2-(4-hydroxy-2-oxo-2,3-dihydro-1,3-benzothiazol-7-yl)ethyl]amino}ethyl)-β-alaninamide bis-trifluoroacetic acid salt] |  | 
79.4 nM | 0.86 | O=C(CCNCCc1cccc(C(F)(F)F)c1)N(CCNCCc1ccc(O)c2[nH]c(=O)sc12)C1CCCCCC1 [Example 82, N^1-Cycloheptyl-N^1-(2-{[2-(4-hydroxy-2-oxo-2,3-dihydro-1,3-benzothiazol-7-yl)ethyl]amino}ethyl)-N^3-{2-[3-(trifluoromethyl)phenyl]ethyl}-β-alaninamide bis-trifluoroacetic acid salt] |  | 
3.98 nM | 0.71 | O=C(CCNCCc1cc(F)ccc1F)N(CCNCCc1ccc(O)c2[nH]c(=O)sc12)C1CCCCCC1 [Example 83, N^1-Cycloheptyl-N^3-[2-(2,5-difluorophenyl)ethyl]-N^1-(2-{[2-(4-hydroxy-2-oxo-2,3-dihydro-1,3-benzothiazol-7-yl)ethyl]amino}ethyl)-β-alaninamide bis-trifluoroacetic acid salt] |  | 
20 nM | 0.89 | O=C(CCNCCc1c(F)cccc1F)N(CCNCCc1ccc(O)c2[nH]c(=O)sc12)C1CCCCCC1 [Example 84, N^1-Cycloheptyl-N^3-[2-(2,6-difluorophenyl)ethyl]-N^1-(2-{[2-(4-hydroxy-2-oxo-2,3-dihydro-1,3-benzothiazol-7-yl)ethyl]amino}ethyl)-β-alaninamide bis-trifluoroacetic acid salt] |  | 

More lines, now with the values behind:

SMILES | EC50 | β2 Int Act | β2 pEC50 | β2 Int Act (dihydrobromide salt)
O=C(CCNC[C@H](O)c1ccccc1)N(CCNCCc1ccc(O)c2[nH]c(=O)sc12)C1CCCCC1 [Example 75, N^1-Cyclohexyl-N^1-(2-{[2-(4-hydroxy-2-oxo-2,3-dihydro-1,3-benzothiazol-7-yl)ethyl]amino}ethyl)-N^3-[(2R)-2-hydroxy-2-phenylethyl]-β-alaninamide bis-trifluoroacetic acid salt] | 10 nM | 0.91 |  | 
O=C(CCNCCc1nc2ccccc2[nH]1)N(CCNCCc1ccc(O)c2[nH]c(=O)sc12)C1CCCCC1 [Example 77, N^3-[2-(1H-Benzimidazol-2-yl)ethyl]-N^1-cyclohexyl-N^1-(2-{[2-(4-hydroxy-2-oxo-2,3-dihydro-1,3-benzothiazol-7-yl)ethyl]amino}ethyl)-β-alaninamide tris-trifluoroacetic acid salt] | 158 nM | 0.54 |  | 
O=C(CCNCCc1cc(F)cc(F)c1)N(CCNCCc1ccc(O)c2[nH]c(=O)sc12)C1CCCCC1 [Example 78, N^1-Cyclohexyl-N^3-[2-(3,5-difluorophenyl)ethyl]-N^1-(2-{[2-(4-hydroxy-2-oxo-2,3-dihydro-1,3-benzothiazol-7-yl)ethyl]amino}ethyl)-β-alaninamide bis-trifluoroacetic acid salt] | 3.16 nM | 0.91 |  | 
O=C(CCNCCc1cccc(F)c1F)N(CCNCCc1ccc(O)c2[nH]c(=O)sc12)C1CCCCC1 [Example 81, N^1-Cyclohexyl-N^3-[2-(2,3-difluorophenyl)ethyl]-N^1-(2-{[2-(4-hydroxy-2-oxo-2,3-dihydro-1,3-benzothiazol-7-yl)ethyl]amino}ethyl)-β-alaninamide bis-trifluoroacetic acid salt] | 2.51 nM | 0.89 |  | 
O=C(CCNCCc1cc(F)cc(F)c1)N(CCNCCc1ccc(O)c2[nH]c(=O)sc12)C1CCCCC1 [Example 92, N-Cyclohexyl-N^3-[2-(3,5-difluorophenyl)ethyl]-N-(2-{[2-(4-hydroxy-2-oxo-2,3-dihydro-1,3-benzothiazol-7-yl)ethyl]amino}ethyl)-β-alaninamide dihydrobromide salt] |  |  | 8.5 | 
O=C(CCNCCc1cccc(F)c1F)N(CCNCCc1ccc(O)c2[nH]c(=O)sc12)C1CCCCC1 [Example 93, N-Cyclohexyl-N^3-[2-(2,3-difluorophenyl)ethyl]-N-(2-{[2-(4-hydroxy-2-oxo-2,3-dihydro-1,3-benzothiazol-7-yl)ethyl]amino}ethyl)-β-alaninamide dihydrobromide salt] |  |  | 8.6 | 
O=C(CCNCCc1ccc(Cl)c(Cl)c1)N(CCNCCc1ccc(O)c2[nH]c(=O)sc12)C1CCOCC1 [Example 94, N^3-[2-(3,4-Dichlorophenyl)ethyl]-N-(2-{[2-(4-hydroxy-2-oxo-2,3-dihydro-1,3-benzothiazol-7-yl)ethyl]amino}ethyl)-N-(tetrahydro-2H-pyran-4-yl)-β-alaninamide dihydrobromide salt] |  |  | 8.1 | 
O=C(CCNCCc1cccc(F)c1)N(CCNCCc1ccc(O)c2[nH]c(=O)sc12)C1CCCCCC1 [Example 95, N-Cycloheptyl-N^3-[2-(3-fluorophenyl)ethyl]-N-(2-{[2-(4-hydroxy-2-oxo-2,3-dihydro-1,3-benzothiazol-7-yl)ethyl]amino}ethyl)-β-alaninamide dihydromide salt] |  |  | 8.6 | 
O=C(CCNCCc1cccc(F)c1)N(CCNCCc1ccc(O)c2[nH]c(=O)sc12)C1CCCCC1 [Example 96, N-Cyclohexyl-N^3-[2-(3-fluorophenyl)ethyl]-N-(2-{[2-(4-hydroxy-2-oxo-2,3-dihydro-1,3-benzothiazol-7-yl)ethyl]amino}ethyl)-β-alaninamide dihydrobromide salt] | 2.51 nM | 0.85 |  | 
O=C(CCNCCc1ccccc1)N(CCNCCc1ccc(O)c2[nH]c(=O)sc12)C1CCCCCC1 [Example 98, N-Cycloheptyl-N-(2-{[2-(4-hydroxy-2-oxo-2,3-dihydro-1,3-benzothiazol-7-yl)ethyl]amino}ethyl)-N^3-(2-phenylethyl)-β-alaninamide dihydrobromide salt] | 1.58 nM |  |  | 0.8
O=C(NCc1ccccc1)c1ccc(CCNCCC(=O)N(CCNCCc2ccc(O)c3[nH]c(=O)sc23)C2CCCCCC2)cc1 [Example 100, N-Benzyl-4-[2-({3-[cycloheptyl(2-{[2-(4-hydroxy-2-oxo-2,3-dihydro-1,3-benzothiazol-7-yl)ethyl]amino}ethyl)amino]-3-oxopropyl}amino)ethyl]benzamide bis-trifluoroacetic acid salt] | 6.31 nM | 0.81 |  | 
CCCC[C@@H](C)N(CCNCCc1ccc(O)c2[nH]c(=O)sc12)C(=O)CCNCCc1ccccc1 [Example 101, N-(2-{[2-(4-Hydroxy-2-oxo-2,3-dihydro-1,3-benzothiazol-7-yl)ethyl]amino}ethyl)-N-[(1R)-1-methylpentyl]-N^3-(2-phenylethyl)-β-alaninamide bis-trifluoroacetic acid salt] | 2.51 nM | 0.98 |  | 
CCCC[C@H](C)N(CCNCCc1ccc(O)c2[nH]c(=O)sc12)C(=O)CCNCCc1ccccc1 [Example 102, N-(2-{[2-(4-Hydroxy-2-oxo-2,3-dihydro-1,3-benzothiazol-7-yl)ethyl]amino}ethyl)-N-[(1S)-1-methylpentyl]-N^3-(2-phenylethyl)-β-alaninamide bis-trifluoroacetic acid salt] | 79.4 nM | 0.23 |  | 
CC(CN(C(=O)CCNCCc1cccc(F)c1)C1CCCCCC1)NCCc1ccc(O)c2[nH]c(=O)sc12 (stereo not drawn) [Example 104, N-Cycloheptyl-N^3-[2-(3-fluorophenyl)ethyl]-N-(2-{[2-(4-hydroxy-2-oxo-2,3-dihydro-1,3-benzothiazol-7-yl)ethyl]amino}propyl)-β-alaninamide bis-trifluoroacetic acid salt] | 5.01 nM | 0.81 |  | 
CC(CN(C(=O)CCNCCc1ccccc1)C1CCCCC1)NCCc1ccc(O)c2[nH]c(=O)sc12 (stereo not drawn) [Example 105, N-Cyclohexyl-N-(2-{[2-(4-hydroxy-2-oxo-2,3-dihydro-1,3-benzothiazol-7-yl)ethyl]amino}propyl)-N^3-(2-phenylethyl)-β-alaninamide bis-trifluoroacetic acid salt] | 6.31 nM | 0.86 |  | 
